Earlier results in US20250073219A1, “NEW COMPOSITION COMPRISING IMMUNOMODULATORY DRUG” (NANEXA AB, priority 2021, published 2025).

Conditions: oral, about 25 mg once daily, plasma; cited from earlier work

For `Nc1cccc2c1CN(C1CCC(=O)NC1=O)C2=O` (stereo not drawn) [lenalidomide, 3-(4-amino-1-3-dihydro-l-ovo-2H-isoindol-2yl)-2,6-piperidinedione], the “Cmax obtained from a dosing regimen comprising orally administering an about 25 mg dose once daily” value is given as “about 568 ng/ml”.
